Drawing on patent EP4467141A1, “PYRAZOLO-QUINOLINES AS SELECTIVE INHIBITORS OF GENOTOXIC STRESS-INDUCED IKK/NF- KB PATHWAYS FOR CANCER THERAPY” (Max-Delbrück-Centrum für Molekulare Medizin in der …, priority 2023, dated 2024), this text covers inhibition for 4 compounds.

Where two headings read alike, the source gives them in different places.

As usually defined, the inhibition is the relative decrease from the control value, in per cent.

What all share (experiment): Kinase panel study
Common to all, as to assay type: biochemical
What all share (conditions): for inhibition at 1 µM: 1000nM

The target in assay [1] is T1, AKT1 (PKB alpha) (Homo sapiens, UniProt P31749).
T1 construct: purchased Thermo Fisher Scientific
T1 sequence (P31749 whole entry): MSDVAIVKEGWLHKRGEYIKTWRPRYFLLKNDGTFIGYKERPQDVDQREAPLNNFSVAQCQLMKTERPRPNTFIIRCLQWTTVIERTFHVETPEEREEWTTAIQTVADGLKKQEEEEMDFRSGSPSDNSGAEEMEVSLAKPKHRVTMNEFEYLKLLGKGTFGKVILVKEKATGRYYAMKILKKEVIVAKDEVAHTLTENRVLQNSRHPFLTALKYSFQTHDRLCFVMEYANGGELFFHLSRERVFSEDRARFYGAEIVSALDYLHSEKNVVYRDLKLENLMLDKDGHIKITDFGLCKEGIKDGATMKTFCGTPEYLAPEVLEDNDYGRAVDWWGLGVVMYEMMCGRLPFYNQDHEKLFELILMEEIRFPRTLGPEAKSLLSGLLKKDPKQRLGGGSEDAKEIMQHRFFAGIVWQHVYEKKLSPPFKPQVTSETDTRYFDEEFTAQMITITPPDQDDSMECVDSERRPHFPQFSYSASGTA
Here is the method: (§1) The Kinase panel study was entirely provided by Thermo Fisher Scientific using the two lead compounds MW01 and MW05 as well as their derivatives (MW01-E06, MW01-E10, MW01-E14, MW01-E18, MW05-E2, MW05-E3, MW05-E9 and MW05-E10. The experiment was performed using the ZLyte or Adapta protocol according to manufacturer standard operating procedures.
(§2) Based on their similar effects in our screen and molecular analysis, MW01 and MW05 were used in comparative target deconvolution studies seeking common targets despite their distinct structures. To eliminate previously identified kinases regulating NF-κB activity, such as IKK, as possible targets of MW01 and MW05, an in vitro kinase inhibition assay was performed. […] We next investigated if any of the shared kinase targets of MW01 and MW05 play a role in genotoxic stress-induced NF-κB activity and established several criteria to narrow down pathway-relevant targets. Considering the similar NF-κB inhibition phenotypes of both compounds, we hypothesized first that the target should be shared by both lead compounds. Second, based on the CaCo2 recovery values and experimental treatment concentration of 10 µM), the putative target kinase should have a low IC50 of, at most, 2000 nM for both lead compounds in the in vitro kinase panel (Fig. 2A). Based on these criteria alone, we arrived at a relatively short list of potential targets for further analysis, leaving only PIK3CG, PIK3C2G, and CLK2 (Fig. 2B). IC50 values for PIK3C2G by both lead compounds agreed best with these criteria, but RNA expression analysis indicates high tissue specificity as well as lack of expression of this kinase in our U2-OS model cell line, which we then eliminated from further analysis (Uhlén et al., 2015). […] Table 6: Percentage of inhibition of the indicated kinases by MW01 or MW05 at either 10 µM or 1 µM. n.d. = not determined.

Assay [2] addresses T2, BTK (Homo sapiens, UniProt Q06187).
T2 construct: purchased Thermo Fisher Scientific
As to the method:
as §1, §2

Assay [3] addresses T3, MAP4K2 (GCK) (Homo sapiens, UniProt Q12851).
T3 construct: purchased Thermo Fisher Scientific
T3 sequence (Q12851 1-820): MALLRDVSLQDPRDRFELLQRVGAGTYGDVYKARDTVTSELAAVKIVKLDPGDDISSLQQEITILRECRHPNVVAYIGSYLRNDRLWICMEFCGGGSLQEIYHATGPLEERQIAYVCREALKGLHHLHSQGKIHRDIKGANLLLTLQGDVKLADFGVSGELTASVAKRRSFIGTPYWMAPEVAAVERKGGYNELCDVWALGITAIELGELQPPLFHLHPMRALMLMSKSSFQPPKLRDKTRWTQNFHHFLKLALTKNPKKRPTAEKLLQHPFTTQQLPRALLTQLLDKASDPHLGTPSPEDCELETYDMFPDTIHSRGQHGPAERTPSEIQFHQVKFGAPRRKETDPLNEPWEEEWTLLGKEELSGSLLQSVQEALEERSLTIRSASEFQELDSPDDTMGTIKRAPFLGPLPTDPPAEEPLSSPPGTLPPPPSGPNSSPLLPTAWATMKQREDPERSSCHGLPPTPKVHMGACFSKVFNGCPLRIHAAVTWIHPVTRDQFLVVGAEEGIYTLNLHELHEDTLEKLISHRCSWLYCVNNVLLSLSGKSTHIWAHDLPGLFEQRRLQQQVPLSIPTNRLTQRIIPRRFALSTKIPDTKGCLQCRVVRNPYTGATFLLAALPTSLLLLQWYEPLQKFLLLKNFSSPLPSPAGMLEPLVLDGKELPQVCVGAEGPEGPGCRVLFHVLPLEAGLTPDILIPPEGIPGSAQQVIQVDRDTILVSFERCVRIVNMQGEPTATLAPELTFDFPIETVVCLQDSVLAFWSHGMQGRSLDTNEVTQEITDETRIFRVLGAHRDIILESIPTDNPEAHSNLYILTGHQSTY
Here is the method: as §1, §2

In assay [4] the target is T4, CSF1R (FMS) (Homo sapiens, UniProt P07333).
T4 construct: purchased Thermo Fisher Scientific
T4 sequence (P07333 20-972): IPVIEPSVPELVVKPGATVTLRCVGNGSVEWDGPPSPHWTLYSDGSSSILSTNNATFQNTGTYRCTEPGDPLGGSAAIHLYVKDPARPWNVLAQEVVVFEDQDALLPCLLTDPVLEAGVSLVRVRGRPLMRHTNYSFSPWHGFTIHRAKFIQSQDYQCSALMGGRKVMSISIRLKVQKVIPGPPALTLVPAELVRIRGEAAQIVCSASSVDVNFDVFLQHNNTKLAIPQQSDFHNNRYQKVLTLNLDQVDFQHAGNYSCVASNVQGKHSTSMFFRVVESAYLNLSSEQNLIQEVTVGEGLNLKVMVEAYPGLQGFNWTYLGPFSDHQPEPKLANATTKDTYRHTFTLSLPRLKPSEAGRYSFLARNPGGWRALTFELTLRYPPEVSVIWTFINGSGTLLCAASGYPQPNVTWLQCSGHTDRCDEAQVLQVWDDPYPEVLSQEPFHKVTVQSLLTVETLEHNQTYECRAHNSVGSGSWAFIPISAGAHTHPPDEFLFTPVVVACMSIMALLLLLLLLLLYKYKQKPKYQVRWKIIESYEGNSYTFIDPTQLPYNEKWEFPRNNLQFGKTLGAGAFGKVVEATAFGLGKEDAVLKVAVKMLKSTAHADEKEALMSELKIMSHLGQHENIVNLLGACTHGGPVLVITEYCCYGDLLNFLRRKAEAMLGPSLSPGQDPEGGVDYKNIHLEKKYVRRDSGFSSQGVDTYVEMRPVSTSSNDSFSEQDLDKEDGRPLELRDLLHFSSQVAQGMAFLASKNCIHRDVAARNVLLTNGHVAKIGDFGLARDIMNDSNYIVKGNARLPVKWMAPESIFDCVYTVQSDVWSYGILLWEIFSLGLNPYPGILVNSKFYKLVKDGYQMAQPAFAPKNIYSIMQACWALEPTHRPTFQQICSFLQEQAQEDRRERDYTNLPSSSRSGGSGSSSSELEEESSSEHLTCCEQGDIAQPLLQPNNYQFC
As to the method: as §1, §2

Assay [5] deals with T5, GSG2 (Haspin) (Homo sapiens, UniProt Q8TF76).
T5 construct: purchased Thermo Fisher Scientific
T5 sequence (Q8TF76 1-798): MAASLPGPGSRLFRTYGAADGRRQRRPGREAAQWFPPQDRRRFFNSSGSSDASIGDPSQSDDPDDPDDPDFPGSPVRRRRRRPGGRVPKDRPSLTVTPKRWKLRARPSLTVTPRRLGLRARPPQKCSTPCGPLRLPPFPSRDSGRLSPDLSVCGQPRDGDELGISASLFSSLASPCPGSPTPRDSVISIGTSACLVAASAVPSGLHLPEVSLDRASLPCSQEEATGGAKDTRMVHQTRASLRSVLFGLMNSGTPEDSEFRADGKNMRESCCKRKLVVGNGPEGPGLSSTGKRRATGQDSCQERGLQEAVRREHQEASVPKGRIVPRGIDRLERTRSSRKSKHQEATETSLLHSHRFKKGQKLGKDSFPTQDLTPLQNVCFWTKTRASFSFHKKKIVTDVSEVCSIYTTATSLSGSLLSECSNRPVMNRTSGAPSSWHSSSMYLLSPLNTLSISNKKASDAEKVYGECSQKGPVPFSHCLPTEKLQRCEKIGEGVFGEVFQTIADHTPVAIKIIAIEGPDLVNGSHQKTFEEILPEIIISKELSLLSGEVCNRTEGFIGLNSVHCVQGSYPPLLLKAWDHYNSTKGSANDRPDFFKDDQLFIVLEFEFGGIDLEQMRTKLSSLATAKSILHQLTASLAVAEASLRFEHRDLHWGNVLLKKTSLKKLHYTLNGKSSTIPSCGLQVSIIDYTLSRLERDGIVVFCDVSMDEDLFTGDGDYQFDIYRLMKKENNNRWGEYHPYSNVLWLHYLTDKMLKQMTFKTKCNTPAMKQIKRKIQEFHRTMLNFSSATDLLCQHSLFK
As to the method: as §1, §2

For assay [6], the target named is T6, IRAK1 (Homo sapiens, UniProt P51617).
T6 construct: purchased Thermo Fisher Scientific
T6 sequence (P51617 whole entry): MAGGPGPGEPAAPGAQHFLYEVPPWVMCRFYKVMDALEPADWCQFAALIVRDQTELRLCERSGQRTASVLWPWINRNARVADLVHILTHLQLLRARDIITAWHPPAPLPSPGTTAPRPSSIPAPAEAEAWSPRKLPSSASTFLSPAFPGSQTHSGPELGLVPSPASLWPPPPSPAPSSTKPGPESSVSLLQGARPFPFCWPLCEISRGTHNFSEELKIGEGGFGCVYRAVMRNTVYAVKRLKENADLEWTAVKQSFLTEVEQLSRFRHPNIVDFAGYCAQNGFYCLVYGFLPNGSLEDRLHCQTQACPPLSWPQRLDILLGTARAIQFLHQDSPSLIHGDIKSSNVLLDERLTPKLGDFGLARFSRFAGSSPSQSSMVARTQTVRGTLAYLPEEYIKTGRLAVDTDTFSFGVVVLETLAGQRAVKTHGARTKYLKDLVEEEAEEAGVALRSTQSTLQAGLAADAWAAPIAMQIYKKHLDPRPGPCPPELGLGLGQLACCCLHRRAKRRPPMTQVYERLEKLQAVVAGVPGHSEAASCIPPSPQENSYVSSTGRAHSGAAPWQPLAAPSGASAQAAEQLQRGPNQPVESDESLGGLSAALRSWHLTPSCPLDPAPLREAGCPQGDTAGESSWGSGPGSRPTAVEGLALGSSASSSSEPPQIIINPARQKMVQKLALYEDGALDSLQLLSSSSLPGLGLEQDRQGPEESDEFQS
As to the method: as §1, §2

Assay [7] has as its target T7, EGFR (ErbB1) (Homo sapiens, UniProt P00533).
T7 construct: purchased Thermo Fisher Scientific
As to the method:
as §1, §2

The target in assay [8] is T8, PI4K2B (PI4K2 beta) (Homo sapiens, UniProt Q8TCG2).
T8 construct: purchased Thermo Fisher Scientific
T8 sequence (Q8TCG2 whole entry): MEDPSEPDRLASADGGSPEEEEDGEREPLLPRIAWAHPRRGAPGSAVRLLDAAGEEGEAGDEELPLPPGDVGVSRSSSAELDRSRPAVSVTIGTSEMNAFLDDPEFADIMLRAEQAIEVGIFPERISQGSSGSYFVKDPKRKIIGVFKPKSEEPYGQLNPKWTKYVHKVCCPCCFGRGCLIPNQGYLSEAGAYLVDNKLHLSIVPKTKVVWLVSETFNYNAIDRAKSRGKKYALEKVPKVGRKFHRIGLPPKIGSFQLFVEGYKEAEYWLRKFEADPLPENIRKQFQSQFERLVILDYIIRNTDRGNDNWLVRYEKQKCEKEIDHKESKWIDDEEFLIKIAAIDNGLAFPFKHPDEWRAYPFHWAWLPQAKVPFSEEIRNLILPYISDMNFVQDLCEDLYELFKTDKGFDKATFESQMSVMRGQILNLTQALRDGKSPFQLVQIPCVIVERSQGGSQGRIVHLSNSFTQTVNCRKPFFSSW
As to the method: as §1, §2

The target of assay [9] is T9, PIK3CD/PIK3R1 (p11 0 delta/p85 alpha) (Homo sapiens, UniProt O00329).
T9 construct: purchased Thermo Fisher Scientific
Here is the method:
as §1, §2

For assay [10], the target named is T10, PIK3CA/PIK3R1 (p11 0 alpha/p85 alpha) (Homo sapiens, UniProt P42336).
T10 construct: purchased Thermo Fisher Scientific
Here is the method: as §1, §2

Where [11] appears, read: AKT1 (PKB alpha), compound at 10µM, read-out: % of Inhibition.
The mark [12] stands for this setting: BTK, compound at 10µM, read-out: % of Inhibition.
The mark [13] stands for this setting: MAP4K2 (GCK), compound at 10µM, read-out: % of Inhibition.
[14] abbreviates: CSF1R (FMS), compound at 10µM, read-out: % of Inhibition.
Setting [15] is: GSG2 (Haspin), compound at 10µM, read-out: % of Inhibition.
The mark [16] stands for this setting: IRAK1, compound at 10µM, read-out: % of Inhibition.
The mark [17] stands for this setting: EGFR (ErbB1), compound at 10µM, read-out: % of Inhibition.
Setting [18] is: PI4K2B (PI4K2 beta), compound at 10µM, read-out: % of Inhibition.
Setting [19] is: PIK3CD/PIK3R1, compound at 10µM, read-out: % of Inhibition.
Setting [20] is: PIK3CA/PIK3R1, compound at 10µM, read-out: % of Inhibition.
Setting [21] is: read-out: Percentage of inhibition.
Where [22] appears, read: 10000nM, read-out: Percentage of inhibition.

T7 sequence (P00533 25-1210): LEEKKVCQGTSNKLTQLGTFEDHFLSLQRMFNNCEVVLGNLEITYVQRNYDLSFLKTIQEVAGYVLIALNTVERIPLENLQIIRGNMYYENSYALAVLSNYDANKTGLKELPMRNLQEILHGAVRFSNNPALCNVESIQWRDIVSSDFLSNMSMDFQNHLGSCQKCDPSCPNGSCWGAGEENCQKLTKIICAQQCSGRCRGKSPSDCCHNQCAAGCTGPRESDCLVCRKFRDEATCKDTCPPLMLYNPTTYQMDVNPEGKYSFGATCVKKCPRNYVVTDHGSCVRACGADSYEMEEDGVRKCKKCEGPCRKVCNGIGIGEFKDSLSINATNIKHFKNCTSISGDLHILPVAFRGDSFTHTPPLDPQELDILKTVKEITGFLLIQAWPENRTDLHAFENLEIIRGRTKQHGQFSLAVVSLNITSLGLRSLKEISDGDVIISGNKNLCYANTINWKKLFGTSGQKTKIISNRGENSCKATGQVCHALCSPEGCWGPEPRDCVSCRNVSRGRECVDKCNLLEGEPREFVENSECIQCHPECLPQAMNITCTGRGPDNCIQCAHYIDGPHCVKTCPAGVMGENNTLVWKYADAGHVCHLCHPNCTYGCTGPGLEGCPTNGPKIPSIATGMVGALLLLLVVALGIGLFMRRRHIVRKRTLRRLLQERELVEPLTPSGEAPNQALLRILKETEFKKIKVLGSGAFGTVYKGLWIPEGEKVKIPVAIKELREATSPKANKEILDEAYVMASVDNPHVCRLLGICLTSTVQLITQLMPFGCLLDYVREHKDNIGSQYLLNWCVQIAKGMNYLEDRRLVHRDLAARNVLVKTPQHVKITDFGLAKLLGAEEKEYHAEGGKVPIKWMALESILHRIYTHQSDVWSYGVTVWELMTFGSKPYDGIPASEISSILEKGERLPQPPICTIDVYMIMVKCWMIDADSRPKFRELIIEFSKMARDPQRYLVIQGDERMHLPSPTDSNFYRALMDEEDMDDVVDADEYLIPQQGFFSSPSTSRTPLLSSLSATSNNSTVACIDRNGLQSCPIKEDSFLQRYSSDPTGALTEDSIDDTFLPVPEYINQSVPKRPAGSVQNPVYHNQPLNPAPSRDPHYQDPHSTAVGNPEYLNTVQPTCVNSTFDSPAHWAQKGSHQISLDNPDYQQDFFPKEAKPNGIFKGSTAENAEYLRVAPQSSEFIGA
T2 sequence (Q06187 whole entry): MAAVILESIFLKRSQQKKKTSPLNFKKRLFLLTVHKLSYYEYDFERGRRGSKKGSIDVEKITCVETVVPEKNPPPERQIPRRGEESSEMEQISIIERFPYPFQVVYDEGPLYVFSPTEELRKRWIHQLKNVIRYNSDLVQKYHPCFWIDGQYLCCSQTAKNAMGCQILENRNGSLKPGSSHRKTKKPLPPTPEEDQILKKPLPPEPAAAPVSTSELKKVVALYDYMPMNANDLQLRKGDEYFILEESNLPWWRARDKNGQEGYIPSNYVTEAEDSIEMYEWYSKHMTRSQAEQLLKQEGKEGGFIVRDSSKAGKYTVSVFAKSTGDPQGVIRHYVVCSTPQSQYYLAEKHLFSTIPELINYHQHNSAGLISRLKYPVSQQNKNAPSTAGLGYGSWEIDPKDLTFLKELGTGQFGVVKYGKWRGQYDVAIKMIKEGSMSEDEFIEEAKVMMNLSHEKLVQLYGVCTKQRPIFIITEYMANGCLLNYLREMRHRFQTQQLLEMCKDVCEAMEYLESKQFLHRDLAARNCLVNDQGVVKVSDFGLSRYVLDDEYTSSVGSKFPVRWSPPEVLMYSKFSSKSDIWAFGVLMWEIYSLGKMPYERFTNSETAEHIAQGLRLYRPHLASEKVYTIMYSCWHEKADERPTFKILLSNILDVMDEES

With `O=c1c2cnccc2c2nccc3c4cc(O)ccc4n1c32` [MW01-E18, 5-hydroxy-1,11,16-triazapentacyclo[10.7.1.0^2,^7.0^8,^20.0^13,^18]icosa-2(7),3,5,8(20),9,11,13(18),14,16-nonaen-19-one], the inhibition at 10 µM was determined as 12% in assay [1] (setting [11]); 30% in assay [2] (setting [12]); 93% in assay [3] (setting [13]); 57% in assay [4] (setting [14]); 88% in assay [5] (setting [15]); 69% in assay [6] (setting [16]). The inhibition at 10 µM in assay [7] (setting [17]) amounted to 14%; in assay [8] (setting [18]), 24%; in assay [9] (setting [19]), 77%; in assay [10] (setting [20]) it was 90%.

On to `COc1ccc2nc3c(cc2c1)c(N)nn3C(=O)c1cccc(N(C)C)c1` [MW05-E2, 1-[3-(dimethylamino)benzoyl]-6-methoxy-1H-pyrazolo[3,4-b]quinolin-3-amine], for which the inhibition at 10 µM in assay [1] (setting [11]) came to 9%; in [2] (setting [12]), 7%; in [3] (setting [13]), 2%; in [4] (setting [14]), 20%; in assay [5] (setting [15]) it was 36%; in [6] (setting [16]) it was 2%. The inhibition at 10 µM in assay [7] (setting [17]) was determined as 33%; in [8] (setting [18]), 8%; in assay [9] (setting [19]), 28%; in assay [10] (setting [20]) it was 26%.

For `COc1ccc2c(c1OC)c(=O)n1c3ccc(O)cc3c3ccnc2c31` [MW01, 5-Hydroxy-10,11-dimethoxy-9H-benzo[c]indolo[3,2,1-ij][1,5]naphthyridin-9-one], the inhibition at 1 µM in assay [1] (setting [21]) is 5%; in assay [2] (setting [21]) it was 11%; in [3] (setting [21]), 50%; in assay [4] (setting [21]), 36%; in assay [5] (setting [21]) it was 77%; in assay [6] (setting [21]), 57%. The inhibition at 1 µM in assay [7] (setting [21]) is 17%; in [8] (setting [21]), 3%; in [9] (setting [21]), 79%; in [10] (setting [21]), 81%. Moreover, the inhibition at 10 µM in [1] (setting [22]) amounted to 10%; in assay [2] (setting [22]), 23%; in assay [3] (setting [22]), 77%; in assay [4] (setting [22]) it was 51%; in [5] (setting [22]), 83%; in assay [6] (setting [22]), 67%. Also, the inhibition at 10 µM in assay [7] (setting [22]) is 0%; in assay [8] (setting [22]) it was 20%; in [9] (setting [22]), 89%; in [10] (setting [22]) it was 86%.

Turning to `COc1ccc2cc3c(N)nn(C(=O)c4cccc(N(C)C)c4)c3nc2c1` [MW05, (3-Amino-7-methoxypyrazolo[3,4-b]quinolin-1-yl)-[3-(dimethylamino)phenyl]methanone], the inhibition at 1 µM in assay [1] (setting [21]) is 3%; in assay [2] (setting [21]), 5%; in [3] (setting [21]), 13%; in [4] (setting [21]), 5%; in assay [5] (setting [21]) it was 4%; in assay [6] (setting [21]) it was 17%. For the same compound, the inhibition at 1 µM in assay [7] (setting [21]) stood at 13%; in assay [8] (setting [21]), 9%; in assay [9] (setting [21]), 40%; in assay [10] (setting [21]), 14%. The inhibition at 10 µM in assay [1] (setting [22]) is 3%; in assay [2] (setting [22]), 8%; in [3] (setting [22]), 10%; in [4] (setting [22]) it was -6%; in assay [5] (setting [22]), 20%; in assay [6] (setting [22]) it was -7%. The inhibition at 10 µM in assay [7] (setting [22]) came out at 5%; in assay [8] (setting [22]), 0%; in [9] (setting [22]), 77%; in assay [10] (setting [22]) it was 52%.
